Calls of active or inactive are those of the source.
Key:
[1] = molecular target: Alpha-1A adrenergic receptor (Homo sapiens, UniProt P35348); test: GPCRScan assay: inhibition of Alpha1A; parameters: radioligand conc. used [nm] 0.2 - 1.0, parental cells stable HEK
[2] = molecular target: Alpha-1B adrenergic receptor (Homo sapiens, UniProt P35368); test: GPCRScan assay: inhibition of Alpha1B; parameters: radioligand conc. used [nm] 0.3 – 1.0, parental cells stable HEK
[3] = NanoBRET assay (AKT1); details: Homo sapiens
[4] = NanoBRET assay (AKT3); details: Homo sapiens
BT-474 = test: CellTiter-Glo luminescent cell viability assay (CTG) with BT-474 cells; format: functional, cell-based; details: Homo sapiens
[5] = molecular target: AMPK alpha2/beta1/gamma1 (Homo sapiens) (UniProt P54646+P54619+Q9Y478); test: AMPK A2/B1/G1 SelectScreen Kinase panel (LifeTechnologies); format: protein-complex assay; details: Compound concentration 1.0 uM
AMPK alpha2/beta1/gamma1 (Homo sapiens), sequence (P54619 whole entry partner): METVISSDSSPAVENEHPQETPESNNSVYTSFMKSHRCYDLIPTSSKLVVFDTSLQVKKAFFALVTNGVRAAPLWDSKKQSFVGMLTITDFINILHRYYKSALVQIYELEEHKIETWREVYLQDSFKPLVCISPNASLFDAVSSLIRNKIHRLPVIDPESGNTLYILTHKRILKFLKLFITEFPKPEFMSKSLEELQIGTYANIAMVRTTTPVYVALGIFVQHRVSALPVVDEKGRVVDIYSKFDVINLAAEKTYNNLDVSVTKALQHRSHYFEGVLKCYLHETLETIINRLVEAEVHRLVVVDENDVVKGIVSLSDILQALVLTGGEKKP
AMPK alpha2/beta1/gamma1 (Homo sapiens), sequence (P54646 whole entry): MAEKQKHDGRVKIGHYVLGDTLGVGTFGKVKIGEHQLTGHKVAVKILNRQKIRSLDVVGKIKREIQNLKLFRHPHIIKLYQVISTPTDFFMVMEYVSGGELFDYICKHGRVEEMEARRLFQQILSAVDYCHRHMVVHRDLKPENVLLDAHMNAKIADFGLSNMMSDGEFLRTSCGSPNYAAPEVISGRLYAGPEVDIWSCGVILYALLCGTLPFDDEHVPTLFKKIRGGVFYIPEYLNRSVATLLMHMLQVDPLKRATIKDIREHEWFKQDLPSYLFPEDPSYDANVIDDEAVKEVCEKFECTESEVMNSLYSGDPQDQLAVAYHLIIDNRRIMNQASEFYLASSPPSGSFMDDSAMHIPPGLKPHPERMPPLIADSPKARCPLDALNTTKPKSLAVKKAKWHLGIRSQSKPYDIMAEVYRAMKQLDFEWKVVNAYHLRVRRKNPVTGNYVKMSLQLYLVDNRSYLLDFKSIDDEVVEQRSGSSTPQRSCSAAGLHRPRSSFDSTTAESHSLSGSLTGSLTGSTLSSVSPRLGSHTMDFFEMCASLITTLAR
AMPK alpha2/beta1/gamma1 (Homo sapiens), sequence (Q9Y478 2-270 partner limits assumed): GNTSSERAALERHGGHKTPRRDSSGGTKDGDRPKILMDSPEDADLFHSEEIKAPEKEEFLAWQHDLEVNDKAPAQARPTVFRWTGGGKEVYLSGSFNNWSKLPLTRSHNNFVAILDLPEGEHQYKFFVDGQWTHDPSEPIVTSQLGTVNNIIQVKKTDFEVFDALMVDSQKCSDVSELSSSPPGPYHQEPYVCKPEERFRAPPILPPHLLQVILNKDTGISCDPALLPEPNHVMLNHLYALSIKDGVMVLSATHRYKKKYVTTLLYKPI

[6] = molecular target: Aurora kinase B (Homo sapiens) (UniProt Q96GD4); test: AURKB (Aurora B) SelectScreen Kinase panel (LifeTechnologies); details: Compound concentration 1.0 uM
Aurora kinase B (Homo sapiens), sequence (Q96GD4 whole entry): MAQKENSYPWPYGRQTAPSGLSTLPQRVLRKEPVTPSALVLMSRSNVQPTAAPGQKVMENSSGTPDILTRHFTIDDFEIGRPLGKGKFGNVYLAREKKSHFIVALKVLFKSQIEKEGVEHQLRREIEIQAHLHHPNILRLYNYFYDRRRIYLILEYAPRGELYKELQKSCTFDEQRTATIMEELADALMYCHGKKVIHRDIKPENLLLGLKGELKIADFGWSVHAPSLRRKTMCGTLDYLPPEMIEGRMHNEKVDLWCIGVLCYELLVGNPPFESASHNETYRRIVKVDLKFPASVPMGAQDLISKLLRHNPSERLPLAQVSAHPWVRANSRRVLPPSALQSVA

[7] = molecular target: Cytoplasmic tyrosine-protein kinase BMX (Homo sapiens) (UniProt P51813); test: BMX SelectScreen Kinase panel (LifeTechnologies); details: Compound concentration 1.0 uM
[8] = molecular target: Serine/threonine-protein kinase MRCK alpha (Homo sapiens) (UniProt Q5VT25); test: CDC42 BPA (MRCKA) SelectScreen Kinase panel (LifeTechnologies); details: Compound concentration 1.0 uM
[9] = molecular target: Serine/threonine-protein kinase MRCK beta (Homo sapiens) (UniProt Q9Y5S2); test: CDC42 BPB (MRCKB) SelectScreen Kinase panel (LifeTechnologies); details: Compound concentration 1.0 uM
[10] = molecular target: Serine/threonine-protein kinase Chk2 (Homo sapiens) (UniProt O96017); test: CHEK2 (CHK2) SelectScreen Kinase panel (LifeTechnologies); details: Compound concentration 1.0 uM
[11] = molecular target: Serine/threonine-protein kinase DCLK2 (Homo sapiens) (UniProt Q8N568); test: DCAMKL2 (DCK2) SelectScreen Kinase panel (LifeTechnologies); details: Compound concentration 1.0 uM
[12] = molecular target: Fibroblast growth factor receptor 1 (Homo sapiens) (UniProt P11362); test: FGFR1 SelectScreen Kinase panel (LifeTechnologies); details: Compound concentration 1.0 uM
[13] = molecular target: G protein-coupled receptor kinase 6 (Homo sapiens) (UniProt P43250); test: GRK6 SelectScreen Kinase panel (LifeTechnologies); details: Compound concentration 1.0 uM
[14] = molecular target: Tyrosine-protein kinase JAK2 (Homo sapiens) (UniProt O60674); test: JAK2 SelectScreen Kinase panel (LifeTechnologies); details: Compound concentration 1.0 uM
[15] = molecular target: Mast/stem cell growth factor receptor Kit (Homo sapiens) (UniProt P10721); test: KIT SelectScreen Kinase panel (LifeTechnologies); details: Compound concentration 1.0 uM
[16] = molecular target: Mitogen-activated protein kinase kinase kinase kinase 5 (Homo sapiens) (UniProt Q9Y4K4); test: MAP4K5 (KHS1) SelectScreen Kinase panel (LifeTechnologies); details: Compound concentration 1.0 uM
[17] = molecular target: Mitogen-activated protein kinase 14 (Homo sapiens) (UniProt Q16539); test: MAPK14 (p38 alpha) Direct SelectScreen Kinase panel (LifeTechnologies); details: Compound concentration 1.0 uM
[18] = molecular target: MAP kinase-activated protein kinase 3 (Homo sapiens) (UniProt Q16644); test: MAPKAPK3 SelectScreen Kinase panel (LifeTechnologies); details: Compound concentration 1.0 uM
[19] = molecular target: Serine/threonine-protein kinase Nek1 (Homo sapiens) (UniProt Q96PY6); test: NEK1 SelectScreen Kinase panel (LifeTechnologies); details: Compound concentration 1.0 uM
[20] = molecular target: PAS domain-containing serine/threonine-protein kinase (Homo sapiens) (UniProt Q96RG2); test: PASK SelectScreen Kinase panel (LifeTechnologies); details: Compound concentration 1.0 uM
[21] = molecular target: cAMP-dependent protein kinase catalytic subunit alpha (Homo sapiens) (UniProt P17612); test: PRKACA (PKA) SelectScreen Kinase panel (LifeTechnologies); details: Compound concentration 1.0 uM
[22] = molecular target: Protein kinase C epsilon type (Homo sapiens) (UniProt Q02156); test: PRKCE (PKC epsilon) SelectScreen Kinase panel (LifeTechnologies); details: Compound concentration 1.0 uM
Protein kinase C epsilon type (Homo sapiens), sequence (Q02156 whole entry): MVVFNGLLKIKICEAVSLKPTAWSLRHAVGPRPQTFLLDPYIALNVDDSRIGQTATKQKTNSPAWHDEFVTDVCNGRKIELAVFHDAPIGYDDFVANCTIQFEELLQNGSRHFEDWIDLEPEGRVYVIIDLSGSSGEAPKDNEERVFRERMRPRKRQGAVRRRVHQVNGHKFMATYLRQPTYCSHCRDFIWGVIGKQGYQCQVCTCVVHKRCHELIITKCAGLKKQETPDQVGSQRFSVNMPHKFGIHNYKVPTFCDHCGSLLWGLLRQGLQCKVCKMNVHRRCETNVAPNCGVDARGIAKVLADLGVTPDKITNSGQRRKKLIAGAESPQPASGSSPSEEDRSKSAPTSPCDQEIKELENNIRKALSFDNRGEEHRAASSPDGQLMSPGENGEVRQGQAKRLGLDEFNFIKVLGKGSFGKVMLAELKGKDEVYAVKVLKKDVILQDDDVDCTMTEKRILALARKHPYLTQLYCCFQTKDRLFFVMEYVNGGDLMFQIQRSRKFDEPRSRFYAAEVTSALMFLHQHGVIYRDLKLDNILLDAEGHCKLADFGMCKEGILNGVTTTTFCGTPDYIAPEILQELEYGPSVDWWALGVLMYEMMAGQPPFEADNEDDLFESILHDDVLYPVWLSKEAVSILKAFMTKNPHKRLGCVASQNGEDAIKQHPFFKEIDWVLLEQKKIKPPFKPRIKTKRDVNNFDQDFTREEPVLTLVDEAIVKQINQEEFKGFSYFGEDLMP

[23] = molecular target: Protein kinase C eta type (Homo sapiens) (UniProt P24723); test: PRKCH (PKC eta) SelectScreen Kinase panel (LifeTechnologies); details: Compound concentration 1.0 uM
[24] = molecular target: Protein kinase C iota type (Homo sapiens) (UniProt P41743); test: PRKCI (PKC iota) SelectScreen Kinase panel (LifeTechnologies); details: Compound concentration 1.0 uM
[25] = molecular target: cAMP-dependent protein kinase catalytic subunit PRKX (Homo sapiens) (UniProt P51817); test: PRKX SelectScreen Kinase panel (LifeTechnologies); details: Compound concentration 1.0 uM
[26] = molecular target: Ribosomal protein S6 kinase alpha-3 (Homo sapiens) (UniProt P51812); test: RPS6KA3 (RSK2) SelectScreen Kinase panel (LifeTechnologies); details: Compound concentration 1.0 uM
[27] = molecular target: Ribosomal protein S6 kinase alpha-6 (Homo sapiens) (UniProt Q9UK32); test: RPS6KA6 (RSK4) SelectScreen Kinase panel (LifeTechnologies); details: Compound concentration 1.0 uM
[28] = molecular target: Serine/threonine-protein kinase Sgk3 (Homo sapiens) (UniProt Q96BR1); test: SGKL (SGK3) SelectScreen Kinase panel (LifeTechnologies); details: Compound concentration 1.0 uM
[29] = molecular target: Serine/threonine-protein kinase 3 (Homo sapiens) (UniProt Q13188); test: STK3 (MST2) SelectScreen Kinase panel (LifeTechnologies); details: Compound concentration 1.0 uM
Serine/threonine-protein kinase 3 (Homo sapiens), sequence (Q13188 whole entry): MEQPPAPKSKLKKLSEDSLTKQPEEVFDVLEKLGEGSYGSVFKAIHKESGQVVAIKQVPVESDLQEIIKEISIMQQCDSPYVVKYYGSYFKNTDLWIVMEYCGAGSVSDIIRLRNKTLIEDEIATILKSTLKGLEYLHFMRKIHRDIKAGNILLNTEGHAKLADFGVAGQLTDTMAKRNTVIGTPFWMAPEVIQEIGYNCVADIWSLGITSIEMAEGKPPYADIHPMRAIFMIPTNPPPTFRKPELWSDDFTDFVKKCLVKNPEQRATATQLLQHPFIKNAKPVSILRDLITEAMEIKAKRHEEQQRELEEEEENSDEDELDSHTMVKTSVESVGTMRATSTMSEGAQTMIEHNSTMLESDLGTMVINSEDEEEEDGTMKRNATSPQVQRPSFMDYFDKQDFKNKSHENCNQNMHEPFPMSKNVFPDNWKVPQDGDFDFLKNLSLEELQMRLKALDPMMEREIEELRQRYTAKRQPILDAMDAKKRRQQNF

[30] = molecular target: Angiopoietin-1 receptor (Homo sapiens) (UniProt Q02763); test: TEK (Tie2) SelectScreen Kinase panel (LifeTechnologies); details: Compound concentration 1.0 uM
Angiopoietin-1 receptor (Homo sapiens), sequence (Q02763 whole entry): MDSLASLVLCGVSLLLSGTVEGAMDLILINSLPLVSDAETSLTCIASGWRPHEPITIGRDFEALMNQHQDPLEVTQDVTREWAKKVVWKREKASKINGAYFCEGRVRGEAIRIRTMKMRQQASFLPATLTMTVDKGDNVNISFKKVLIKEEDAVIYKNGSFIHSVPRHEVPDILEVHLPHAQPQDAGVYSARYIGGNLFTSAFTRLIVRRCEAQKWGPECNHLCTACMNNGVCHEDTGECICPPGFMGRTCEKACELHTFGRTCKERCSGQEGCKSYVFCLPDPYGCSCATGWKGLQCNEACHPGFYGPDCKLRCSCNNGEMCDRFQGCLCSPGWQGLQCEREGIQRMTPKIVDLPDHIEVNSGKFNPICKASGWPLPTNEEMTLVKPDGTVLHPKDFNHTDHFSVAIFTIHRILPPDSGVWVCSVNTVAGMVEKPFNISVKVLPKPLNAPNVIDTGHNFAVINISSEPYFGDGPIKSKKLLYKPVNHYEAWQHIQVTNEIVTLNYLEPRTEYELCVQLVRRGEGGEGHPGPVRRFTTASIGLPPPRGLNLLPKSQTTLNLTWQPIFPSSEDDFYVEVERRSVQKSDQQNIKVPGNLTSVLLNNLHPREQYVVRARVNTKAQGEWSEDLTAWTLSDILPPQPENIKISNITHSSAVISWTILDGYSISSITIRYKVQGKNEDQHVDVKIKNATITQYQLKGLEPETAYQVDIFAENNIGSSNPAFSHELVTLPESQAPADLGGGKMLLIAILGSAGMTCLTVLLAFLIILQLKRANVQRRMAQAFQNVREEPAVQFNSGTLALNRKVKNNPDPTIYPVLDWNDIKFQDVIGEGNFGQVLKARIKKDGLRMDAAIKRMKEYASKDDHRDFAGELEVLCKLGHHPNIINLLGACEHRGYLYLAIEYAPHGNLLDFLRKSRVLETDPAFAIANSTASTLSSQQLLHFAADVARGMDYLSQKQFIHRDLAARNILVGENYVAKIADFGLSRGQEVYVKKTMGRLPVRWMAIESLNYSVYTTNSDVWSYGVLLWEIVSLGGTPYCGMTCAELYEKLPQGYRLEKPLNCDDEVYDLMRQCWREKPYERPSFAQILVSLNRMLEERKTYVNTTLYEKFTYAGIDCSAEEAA

[31] = molecular target: 5-hydroxytryptamine receptor 1E (Homo sapiens) (UniProt P28566); details: Compound concentration 10.0 uM
5-hydroxytryptamine receptor 1E (Homo sapiens), sequence (P28566 whole entry): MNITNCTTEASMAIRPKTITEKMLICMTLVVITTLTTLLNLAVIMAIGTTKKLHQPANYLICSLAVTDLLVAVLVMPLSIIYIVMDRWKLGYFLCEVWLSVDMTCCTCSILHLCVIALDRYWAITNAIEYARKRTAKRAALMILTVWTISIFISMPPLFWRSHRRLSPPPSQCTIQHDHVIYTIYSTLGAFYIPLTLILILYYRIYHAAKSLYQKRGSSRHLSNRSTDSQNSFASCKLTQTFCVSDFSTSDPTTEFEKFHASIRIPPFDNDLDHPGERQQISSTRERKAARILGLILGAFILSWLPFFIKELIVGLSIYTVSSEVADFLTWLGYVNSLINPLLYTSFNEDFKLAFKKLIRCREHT

[32] = molecular target: 5-hydroxytryptamine receptor 2B (Homo sapiens) (UniProt P41595); details: Compound concentration 10.0 uM
[33] = molecular target: 5-hydroxytryptamine receptor 2C (Homo sapiens) (UniProt P28335); details: Compound concentration 10.0 uM
[34] = molecular target: 5-hydroxytryptamine receptor 3A (Homo sapiens) (UniProt P46098); details: Compound concentration 10.0 uM
[35] = molecular target: D(1A) dopamine receptor (Homo sapiens) (UniProt P21728); details: Compound concentration 10.0 uM
[36] = molecular target: Sodium-dependent serotonin transporter (Homo sapiens) (UniProt P31645); details: Compound concentration 10.0 uM
[37] = molecular target: Sodium-dependent noradrenaline transporter (Homo sapiens) (UniProt P23975); details: Compound concentration 10.0 uM
[38] = molecular target: Sodium-dependent dopamine transporter (Homo sapiens, UniProt Q01959); details: Compound concentration 10.0 uM
[39] = molecular target: Alpha-1A adrenergic receptor (Homo sapiens) (UniProt P35348); details: Compound concentration 10.0 uM
Alpha-1A adrenergic receptor (Homo sapiens), sequence (P35348 whole entry): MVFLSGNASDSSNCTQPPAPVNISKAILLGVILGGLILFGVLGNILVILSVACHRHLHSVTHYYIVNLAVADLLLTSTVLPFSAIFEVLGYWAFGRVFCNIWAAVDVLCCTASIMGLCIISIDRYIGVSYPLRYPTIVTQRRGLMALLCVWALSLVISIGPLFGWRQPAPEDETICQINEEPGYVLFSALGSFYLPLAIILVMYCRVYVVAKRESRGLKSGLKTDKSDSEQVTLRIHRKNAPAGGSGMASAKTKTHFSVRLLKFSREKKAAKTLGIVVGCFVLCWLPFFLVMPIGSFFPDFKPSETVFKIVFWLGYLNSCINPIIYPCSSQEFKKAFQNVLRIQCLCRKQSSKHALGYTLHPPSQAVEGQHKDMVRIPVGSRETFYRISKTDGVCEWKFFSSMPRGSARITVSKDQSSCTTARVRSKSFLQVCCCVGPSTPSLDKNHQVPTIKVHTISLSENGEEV

[40] = molecular target: Alpha-2C adrenergic receptor (Homo sapiens) (UniProt P18825); details: Compound concentration 10.0 uM
[41] = molecular target: Beta-1 adrenergic receptor (Homo sapiens) (UniProt P08588); details: Compound concentration 10.0 uM
[42] = molecular target: Muscarinic acetylcholine receptor M1 (Homo sapiens) (UniProt P11229); details: Compound concentration 10.0 uM
[43] = molecular target: Muscarinic acetylcholine receptor M3 (Homo sapiens) (UniProt P20309); details: Compound concentration 10.0 uM
Rattus norvegicus = species on record: Rattus norvegicus; details: Compound concentration 10.0 uM
[44] = molecular target: Sigma intracellular receptor 2 (Homo sapiens) (UniProt Q5BJF2); details: Compound concentration 10.0 uM
Sigma intracellular receptor 2 (Homo sapiens), sequence (Q5BJF2 whole entry): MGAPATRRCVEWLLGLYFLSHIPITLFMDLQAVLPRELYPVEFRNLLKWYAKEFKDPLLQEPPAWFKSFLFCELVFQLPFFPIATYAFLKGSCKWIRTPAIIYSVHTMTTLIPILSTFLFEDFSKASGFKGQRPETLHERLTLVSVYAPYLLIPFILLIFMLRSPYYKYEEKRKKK

Alpha-1A adrenergic receptor, sequence (P35348 whole entry): as the sequence (P35348 whole entry) above

C=CC(=O)Nc1ccc2[nH]c(=O)n(C3CCN(Cc4ccc(-c5nc6cc[nH]c(=O)c6cc5-c5ccccc5)cc4)CC3)c2c1 [Borussertib]
4.24 µM: Ki [2]
2.66 µM: Ki [1]
inactive: inhibition [5] 20% | inhibition [6] 7% | inhibition [7] 7% | inhibition [8] 2% | inhibition [9] 1% | inhibition [10] 4% | inhibition [11] -2% | inhibition [12] 25% | inhibition [13] 2% | inhibition [14] -8% | inhibition [15] 8% | inhibition [16] 37% | inhibition [17] -1% | inhibition [18] 17% | inhibition [19] 8% | inhibition [20] 15% | inhibition [21] -3% | inhibition [22] -1% | inhibition [23] -2% | inhibition [24] 6% | inhibition [25] 3% | inhibition [26] 21% | inhibition [27] 14% | inhibition [28] 2% | inhibition [29] 1% | inhibition [30] 13% | inhibition [31] 18% | inhibition [32] -2.56% | inhibition [33] -8.03% | inhibition [34] 30.2% | inhibition [35] 19.2% | inhibition [36] 2.16% | inhibition [37] 4.49% | inhibition [40] -7.2% | inhibition [41] -0.86% | inhibition [42] -8.04% | inhibition [43] 5.83% | inhibition [44] 24.8%
4.3 µM (not active): IC50 [4]
active: EC50 [3] 0.026 µM | IC50 [3] 0.021 µM | EC50 [4] 0.029 µM | EC50 (BT-474) 0.37 µM | inhibition [38] 59.7% | inhibition [39] 72.2% | inhibition (Rattus norvegicus) 72.3%

— ChEMBL document CHEMBL4800730 (2021)
